In ChEMBL document CHEMBL1201862, “PubChem BioAssay data set” (2004):
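Growth conditions: 96-well plates. Treatment: test compound, 48 hours, 5 concentrations. Analysis: linear interpolation between bracketing concentrations; unreached endpoints set to highest concentration. GI50 is the concentration that inhibits growth by half.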 Active and inactive are the calls of the source. No stated cut-off is given here; in the data, active = GI50 up to about 1.1 µM and inactive = higher.

Experiments:
Assay in all cases: NCI tumour cell line growth inhibition, 48 h
OVCAR-3 = tested on: OVCAR-3
OVCAR-4 = tested on: OVCAR-4
RXF 631 = tested on: RXF 631
KM12 = tested on: KM12
UO-31 = tested on: UO-31
HT-29 = tested on: HT-29
HOP-62 = tested on: HOP-62
SNB-78 = tested on: SNB-78
RPMI-8226 = tested on: RPMI-8226
SW-620 = tested on: SW-620
HCC 2998 = tested on: HCC 2998
OVCAR-8 = tested on: OVCAR-8
SN12C = tested on: SN12C
XF498 = tested on: XF498
SF-539 = tested on: SF-539
EKVX = tested on: EKVX
MOLT-4 = tested on: MOLT-4
M14 = tested on: M14
RXF 393 = tested on: RXF 393
CCRF-CEM = tested on: CCRF-CEM
U-251 = tested on: U-251
HCT-15 = tested on: HCT-15
HOP-18 = tested on: HOP-18
LXFL 529 = tested on: LXFL 529
A549 = tested on: A549
SR = tested on: SR
OVCAR-5 = tested on: OVCAR-5
DMS-114 = tested on: DMS-114
HCT-116 = tested on: HCT-116
SNB-19 = tested on: SNB-19
K562 = tested on: K562
CAKI-1 = tested on: CAKI-1
ACHN = tested on: ACHN
HL-60 = tested on: HL-60
LOX IMVI = tested on: LOX IMVI
NCI-H460 = tested on: NCI-H460
COLO 205 = tested on: COLO 205
SF-268 = tested on: SF-268
SF-295 = tested on: SF-295
HOP-92 = tested on: HOP-92
KM-20L2 = tested on: KM-20L2
NCI-H23 = tested on: NCI-H23
DMS-273 = tested on: DMS-273
NCI-H226 = tested on: NCI-H226
786-0 = tested on: 786-0
SNB-75 = tested on: SNB-75
IGROV-1 = tested on: IGROV-1
UACC-62 = tested on: UACC-62
SK-MEL-2 = tested on: SK-MEL-2
UACC-257 = tested on: UACC-257
SK-MEL-5 = tested on: SK-MEL-5
SK-OV-3 = tested on: SK-OV-3
NCI-H522 = tested on: NCI-H522
M19-MEL = tested on: M19-MEL
DLD-1 = tested on: DLD-1
TK-10 = tested on: TK-10
SK-MEL-28 = tested on: SK-MEL-28
Malme-3M = tested on: Malme-3M
A498 = tested on: A498

## O=C(N/C=C/C=C/Sc1ccccc1)OCc1ccccc1
OVCAR-3
  GI50: 17.3 µM (inactive)
OVCAR-4
  GI50: 21.7 µM (inactive)
RXF 631
  GI50: 19.1 µM (inactive)
KM12
  GI50: 17.5 µM (inactive)
UO-31
  GI50: 17.5 µM (inactive)
HT-29
  GI50: 17.5 µM (inactive)
HOP-62
  GI50: 24.5 µM (inactive)
SNB-78
  GI50: 40.2 µM (inactive)
RPMI-8226
  GI50: 18.7 µM (inactive)
SW-620
  GI50: 17.7 µM (inactive)
HCC 2998
  GI50: 20.1 µM (inactive)
OVCAR-8
  GI50: 15.7 µM (inactive)
SN12C
  GI50: 17.1 µM (inactive)
XF498
  GI50: 20.4 µM (inactive)
SF-539
  GI50: 16.5 µM (inactive)
EKVX
  GI50: 24.8 µM (inactive)
MOLT-4
  GI50: 15.4 µM (inactive)
M14
  GI50: 18.5 µM (inactive)
RXF 393
  GI50: 20.1 µM (inactive)
CCRF-CEM
  GI50: 52.1 µM (inactive)
U-251
  GI50: 19.3 µM (inactive)
HCT-15
  GI50: 18.1 µM
HOP-18
  GI50: 28.1 µM (inactive)
LXFL 529
  GI50: 17.1 µM (inactive)
A549
  GI50: 20.4 µM (inactive)
SR
  GI50: 36.3 µM (inactive)
OVCAR-5
  GI50: 14.3 µM (inactive)
DMS-114
  GI50: 16.6 µM (inactive)
HCT-116
  GI50: 18.2 µM (inactive)
SNB-19
  GI50: 33.3 µM (inactive)
K562
  GI50: 15.4 µM (inactive)
CAKI-1
  GI50: 20.3 µM (inactive)
ACHN
  GI50: 27.2 µM (inactive)
HL-60
  GI50: 8.83 µM (inactive)
LOX IMVI
  GI50: 17.5 µM (inactive)
NCI-H460
  GI50: 21.7 µM (inactive)
COLO 205
  GI50: 17.7 µM (inactive)
SF-268
  GI50: 17.5 µM (inactive)
SF-295
  GI50: 19.6 µM (inactive)
HOP-92
  GI50: 23.2 µM (inactive)
KM-20L2
  GI50: 17.2 µM (inactive)
NCI-H23
  GI50: 22.7 µM (inactive)
DMS-273
  GI50: 16.6 µM (inactive)
NCI-H226
  GI50: 19.9 µM (inactive)
786-0
  GI50: 16.9 µM (inactive)
SNB-75
  GI50: 21.5 µM (inactive)
IGROV-1
  GI50: 21.2 µM (inactive)
UACC-62
  GI50: 16 µM (inactive)
SK-MEL-2
  GI50: > 10 µM (inactive)
UACC-257
  GI50: 18.7 µM (inactive)
SK-MEL-5
  GI50: 17.7 µM (inactive)
SK-OV-3
  GI50: 33.8 µM (inactive)
NCI-H522
  GI50: 16.1 µM (inactive)
M19-MEL
  GI50: 17.2 µM (inactive)
DLD-1
  GI50: 14.1 µM (inactive)
TK-10
  GI50: 24.3 µM (inactive)
SK-MEL-28
  GI50: 18.7 µM (inactive)

## COc1ccccc1NC(=O)C(=O)C1C(=O)Nc2ccccc2[S+]1[O-] (centres undefined)
OVCAR-3
  GI50: > 100 µM (inactive)
OVCAR-4
  GI50: > 100 µM (inactive)
RXF 631
  GI50: > 100 µM (inactive)
KM12
  GI50: > 100 µM (inactive)
UO-31
  GI50: > 100 µM (inactive)
HT-29
  GI50: > 100 µM (inactive)
HOP-62
  GI50: > 100 µM (inactive)
SNB-78
  GI50: > 100 µM (inactive)
SW-620
  GI50: > 100 µM (inactive)
HCC 2998
  GI50: > 100 µM (inactive)
OVCAR-8
  GI50: > 100 µM (inactive)
SN12C
  GI50: > 100 µM (inactive)
XF498
  GI50: > 100 µM (inactive)
SF-539
  GI50: > 100 µM (inactive)
EKVX
  GI50: > 100 µM (inactive)
MOLT-4
  GI50: > 100 µM (inactive)
M14
  GI50: > 100 µM (inactive)
RXF 393
  GI50: > 100 µM (inactive)
Malme-3M
  GI50: > 100 µM (inactive)
CCRF-CEM
  GI50: > 100 µM (inactive)
U-251
  GI50: > 100 µM (inactive)
HCT-15
  GI50: > 100 µM
HOP-18
  GI50: > 100 µM (inactive)
LXFL 529
  GI50: > 100 µM (inactive)
A549
  GI50: > 100 µM (inactive)
SR
  GI50: > 100 µM (inactive)
OVCAR-5
  GI50: > 100 µM (inactive)
DMS-114
  GI50: > 100 µM (inactive)
HCT-116
  GI50: > 100 µM (inactive)
SNB-19
  GI50: > 100 µM (inactive)
K562
  GI50: > 100 µM (inactive)
CAKI-1
  GI50: > 100 µM (inactive)
ACHN
  GI50: > 100 µM (inactive)
HL-60
  GI50: > 100 µM (inactive)
LOX IMVI
  GI50: > 100 µM (inactive)
NCI-H460
  GI50: > 100 µM (inactive)
COLO 205
  GI50: > 100 µM (inactive)
SF-268
  GI50: > 100 µM (inactive)
SF-295
  GI50: > 100 µM (inactive)
KM-20L2
  GI50: > 100 µM (inactive)
NCI-H23
  GI50: > 100 µM (inactive)
DMS-273
  GI50: > 100 µM (inactive)
NCI-H226
  GI50: > 100 µM (inactive)
786-0
  GI50: > 100 µM (inactive)
SNB-75
  GI50: > 100 µM (inactive)
IGROV-1
  GI50: > 100 µM (inactive)
UACC-62
  GI50: > 100 µM (inactive)
SK-MEL-2
  GI50: > 100 µM (inactive)
UACC-257
  GI50: > 100 µM (inactive)
SK-MEL-5
  GI50: > 100 µM (inactive)
SK-OV-3
  GI50: > 100 µM (inactive)
NCI-H522
  GI50: > 100 µM (inactive)
M19-MEL
  GI50: > 100 µM (inactive)
DLD-1
  GI50: > 100 µM (inactive)
A498
  GI50: > 100 µM (inactive)
TK-10
  GI50: > 100 µM (inactive)
SK-MEL-28
  GI50: > 100 µM (inactive)
